Test results reported in a melting point compilation (Tetko et al.).

In the case of O=[N+]([O-])c1ccc(-c2nnc3n2NC(c2ccc([N+](=O)[O-])cc2)S3)cc1 (stereo unspecified), the melting point is reported as 229 °C.
Compound NC(CC(=O)O)C1CCCCC1 (stereo unspecified) has a melting point of 234 to 235 °C.
CCCCN1CCOCC1 showed a melting point of -57.1 °C.
Compound NC(=O)C(=O)O has a melting point of 210 °C.
O=c1[nH]c(=O)n(CCO)c2c1CCCC2 gave a melting point of 275 to 278 °C.
Compound CCN1CC2(COC)CCC(O)C34C5CC6C(OC)CC(O)(C5C6OC)C(O)(C(OC)C23)C14 (stereo unspecified) has a melting point of 214 °C.
Work on O=C(NCCN=Cc1ccccn1)C(=O)NCc1ccccn1 yielded a melting point of 125 °C.
With Nc1nc(S)nc2[nH]ncc12 the melting point was 300 °C.
In the case of Cc1cccc(NC(=O)C(F)(F)C(F)(F)C(F)(F)C(F)(F)C(F)(F)C(F)(F)C(F)(F)C(F)(F)F)c1, the melting point is reported as 97 °C.
In the case of CCCCCCCCC=CCCCCCCCC(=O)OCC, the melting point is reported as -32 °C.
With Fc1cc(Br)c(F)cc1Br the melting point was 62 °C.
For N#CSC#N, the melting point was 63.5 °C.
With Fc1ccc(P(c2ccc(F)cc2)c2ccc(F)cc2)cc1 the melting point was 80 °C.
In the case of Nc1nc(CC(=O)O)cs1, the melting point is reported as 118 °C.
CCOC(=O)Cc1ccc([N+](=O)[O-])cc1 showed a melting point of 64 °C.
Work on CCC(=O)OC1CCC2C3CCC4CC(=O)C(C)CC4(C)C3CCC12C (stereo unspecified) yielded a melting point of 128 °C.
In the case of Cc1cc(=O)oc2cc(O)c(O)cc12, the melting point is reported as 275 °C.
NC(=O)c1ccco1 gave a melting point of 141 °C.
With Cn1c(S)nnc1CNC(=O)OC(C)(C)C the melting point was 168 to 169 °C.
O=C(O)c1c(Cl)c(Cl)c(Cl)c(Cl)c1Cl gave a melting point of 209 °C.
CC(C)S(=O)(=O)c1cnc(-c2cccnc2)nc1N showed a melting point of 225 to 228 °C.
With Cc1c(Cl)cccc1Cl the melting point was 25.8 °C.
With CCOC(=O)c1c(N)sc(C)c1-c1ccccc1 the melting point was 92 to 93 °C.
With COc1cccc(O)c1C(C)=O the melting point was 58 to 60 °C.
CC#CC(C)C showed a melting point of -110 °C.
Work on Clc1ccccc1C(c1ccccc1)(c1ccccc1)n1ccnc1 yielded a melting point of 147 °C.
With Oc1ccc(SC(F)(F)F)cc1 the melting point was 59 °C.
Work on Cc1nn(C)c(C)c1C=O yielded a melting point of 81.5 °C.
For Nc1ncnc2c1ncn2Cc1c(F)cccc1Cl, the melting point was 245 °C.
O=C(O)c1cc(C(=O)O)cc(C(=O)O)c1 showed a melting point of 380 °C.
With Cc1nc(-c2ccc3c(c2)CCO3)sc1C(=O)O the melting point was 221 to 225 °C.
O=C(O)c1cccc(N2CCOCC2)c1 showed a melting point of 161 to 163 °C.
With N#CC1(O)CCCCC1 the melting point was 35 °C.
For O=C(O)c1ccc([N+](=O)[O-])cc1F, the melting point was 174 °C.
CN1CCC2=C(C1)C(c1ccccc1)c1ccccc12 (stereo unspecified) gave a melting point of 91 °C.
Work on Oc1c(-c2ccccn2)n(N2CCCCC2)c2ccccc12 yielded a melting point of 185 °C.
CC(=O)NCCc1ccccc1NC(C)=O gave a melting point of 144 °C.
Work on Clc1cc2c(cc1Cl)Oc1cc(Br)c(Br)cc1O2 yielded a melting point of 316 °C.
In the case of O=C(O)CCSC1=CC(=O)C(SCCC(=O)O)=CC1=O, the melting point is reported as 230 to 236 °C.
Work on CC(=O)Cc1ccco1 yielded a melting point of 29 °C.
Compound C#CCCCCCCCCC(=O)O has a melting point of 42 °C.
In the case of COc1ccc(OC)c(/C=N/n2c(S)nnc2C(F)(F)F)c1, the melting point is reported as 145 °C.
In the case of COc1ccc2c(c1OC)C(=O)OC2C1c2c(cc3c(c2OC)OCO3)CCN1C (stereo unspecified), the melting point is reported as 176 °C.
Compound Clc1ccc(Cn2c(CN3CCCC3)nc3ccccc32)cc1 has a melting point of 167 °C.
Compound Fc1c(F)c(F)c(CBr)c(F)c1F has a melting point of 19 °C.
Cc1nc(C=O)c[nH]1 gave a melting point of 165 °C.
With CC(=O)OCC(=O)c1ccccc1 the melting point was 49 °C.
CN1CCN(C2=Nc3ccccc3Cc3ccccc32)CC1 gave a melting point of 137 °C.
In the case of CC12CCC3C(C(=O)CC4CC(=O)CCC43C)C1CCC2=O (stereo unspecified), the melting point is reported as 229 to 234 °C.
With O=Cc1csc2ccc(Br)cc12 the melting point was 106 to 107 °C.
With O=[N+]([O-])c1cccc(-c2nnc3n2CN(c2ccccc2[N+](=O)[O-])CS3)c1 the melting point was 183 °C.
In the case of NCCCC1C=NNC1=O (stereo unspecified), the melting point is reported as 216 °C.
NNC(=O)c1cccc(N)c1 gave a melting point of 92 °C.
For O=C(CBr)c1ccc(-c2ccccc2)cc1, the melting point was 125 °C.
CC(=O)NC(CCC(=O)O)C(=O)O (stereo unspecified) gave a melting point of 199 °C.
Compound CCCCCCCC/C=C\CCCCCCCCCCCC(=O)O has a melting point of 33.5 °C.
Work on O=[N+]([O-])c1ccc(S(=O)(=O)OCc2cccc(OS(=O)(=O)c3ccc([N+](=O)[O-])cc3)c2)cc1 yielded a melting point of 199 to 202 °C.
In the case of O=C(O)C=CC(=O)Nc1ccc(F)cc1F, the melting point is reported as 191 °C.
O=Cc1cc(Cl)ccc1[N+](=O)[O-] gave a melting point of 75 to 77 °C.
With Brc1c(Br)c(Br)c(Oc2ccccc2)c(Br)c1Br the melting point was 200 °C.
For Cc1ccc(N/N=C(/C#N)c2nc(-c3ccc(Cl)cc3)cs2)cc1, the melting point was 208 °C.
O=C(NCCCl)c1ccccc1 gave a melting point of 103 °C.
With O=C1C(c2ccccc2)=[N+]([O-])c2cc([N+](=O)[O-])c(/C=C/c3ccccc3)cc21 the melting point was 233 °C.
Work on Cc1cc(C)nc(NNC=Cc2ccc([N+](=O)[O-])cc2)n1 yielded a melting point of 183 to 184 °C.
In the case of CSc1nc(N)nc(-c2cc(Cl)cc(Cl)c2)n1, the melting point is reported as 214 to 216 °C.
For S=C1SCCS1, the melting point was 35 °C.
Work on Cc1cc(=O)n(-c2ccccc2)n1C yielded a melting point of 114 °C.
With CC(=NNC(N)=O)c1cccc(C(C)=NNC(N)=O)c1 the melting point was 238 °C.
N#CCC(=O)c1ccc(OC(F)(F)F)cc1 showed a melting point of 82 to 84 °C.
Work on COc1cc(O)c(C(C)=O)c(O)c1 yielded a melting point of 144 to 149 °C.
Work on Cc1nc(C(F)(F)F)ccc1C(=O)O yielded a melting point of 137 to 142 °C.
CC(C=CC=C(C)C=CC12OC1(C)CC(O)CC2(C)C)=CC=CC=C(C)C=CC=C(C)C=CC12OC1(C)CC(O)CC2(C)C (stereo unspecified) gave a melting point of 208 °C.
Compound Nc1cc(-c2ccc(Cl)cc2)n[nH]1 has a melting point of 174 to 176 °C.
CCN(CC)C(C)CN1c2ccccc2Sc2ccccc21 (stereo unspecified) gave a melting point of 53 °C.
With CC1=NN(c2ccc([N+](=O)[O-])cc2)C(=O)C1 the melting point was 220 to 225 °C.
CCCCCCCCCCCCCCCc1cccc(O)c1O gave a melting point of 59.5 °C.
With Cc1csc(N)c1-c1nc2ccccc2s1 the melting point was 111 to 112 °C.
For COc1ccccc1C(=O)Oc1ccc(/C=C/C(=O)c2ccccc2)cc1, the melting point was 115 °C.
For Cc1ccc(O)c(I)n1, the melting point was 195 to 201 °C.
With C#CCCCCCCCCCCCCCC the melting point was 15 °C.
Compound O=C(O)c1cc(-c2ccc(-c3cc(C(=O)O)c4ccccc4n3)cc2)nc2ccccc12 has a melting point greater than 315 °C.
Compound O=[N+]([O-])c1ccc(Nc2ccccc2)cc1 has a melting point of 135 °C.
Compound Fc1ccc2c(c1)Cc1ccccc1-2 has a melting point of 98 °C.
CNC(=O)ON=CC(C)(C)SC showed a melting point of 99 °C.
Compound Cc1csc2ncnc(NN)c12 has a melting point of 182 to 183 °C.
For CC(=O)C1CCC2(C)C(CC(=O)C3C4CCC(=O)C4(C)CCC32)C1 (stereo unspecified), the melting point was 237 °C.
With C#CC(C)(CC)OC(=O)c1ccccc1C(=O)O (stereo unspecified) the melting point was 97 °C.
With COc1ccc(OC)c(C(C)=O)c1O the melting point was 49 to 51 °C.
Work on Cn1c(=O)c(C2=NNC(=O)C2=Cc2cccc(O)c2)c(O)c2ccccc21 yielded a melting point of 290 °C.
For Cn1c2ccccc2n2c(=O)c3ccncc3c(C#N)c12, the melting point was 296 °C.
For O=C(NCCc1ccccc1)c1cc([N+](=O)[O-])cc([N+](=O)[O-])c1, the melting point was 204 °C.
CC12CCC(C=C/C1=N\O)C2(C)C (stereo unspecified) showed a melting point of 145 to 146 °C.
Work on BrC1Cc2ccccc2C1Br (stereo unspecified) yielded a melting point of 32 °C.
In the case of Cc1nc2sc3c(c2c(=O)n1NC(=O)c1ccccc1Cl)CCCC3, the melting point is reported as 244 to 246 °C.
For COC(=O)c1ccc(CCl)o1, the melting point was 32 to 36 °C.
CC(=O)/C(=C/Nc1ccccc1)Cc1ccccc1 showed a melting point of 132 °C.
O=C(O)[C@H](O)c1ccccc1Cl gave a melting point of 118 to 121 °C.
Compound Oc1ccc2cc(Br)ccc2c1Br has a melting point of 105 to 107 °C.
With Cc1nc2ccccc2n1CCc1nnc(SCc2ccccc2)n1-c1ccccc1 the melting point was 130 °C.
With Oc1ccc2ccccc2c1Br the melting point was 84 °C.
C#CC1(O)CCC2C3CCc4cc(OC)ccc4C3CCC21C (stereo unspecified) showed a melting point of 150 °C.
For O=C1OC(=O)c2cc([N+](=O)[O-])cc3cccc1c23, the melting point was 247 to 254 °C.
Work on O=C(OCC1CCC2OC2C1)C1CCC2OC2C1 (stereo unspecified) yielded a melting point of -37 °C.
O=[N+]([O-])c1ccc(-c2nc3n(c2[N+](=O)[O-])CCS3)cc1 showed a melting point of 203 to 205 °C.
O=C(C1=NOC2C(=O)N(c3ccccc3)C(=O)C12)c1cccs1 (stereo unspecified) gave a melting point of 174 °C.
For COc1cc2ccc(N(C)S(=O)(=O)c3ccc(C)cc3)cc2[nH]1, the melting point was 203 °C.
For CC1=NN(c2ccccc2)C(=O)C1C1C(=O)N(c2ccccc2)N=C1C (stereo unspecified), the melting point was 355 °C.
Work on Cc1nsc(-c2ccccc2)n1 yielded a melting point of 50 to 52 °C.
Work on CC(=O)OC1CCC2C3CCC4CC(C(C)=O)=CCC4(C)C3CCC12C (stereo unspecified) yielded a melting point of 115 to 140 °C.
Compound CC1Cc2ccccc2CC1C (stereo unspecified) has a melting point of -5 °C.
Cn1cc(Br)c(N)n1 showed a melting point of 98 °C.
In the case of COc1ccc2c(=O)c(C)c(-c3ccccc3)oc2c1CN(C)C, the melting point is reported as 110 °C.
For CC(=O)c1c(-c2ccccc2)noc1C, the melting point was 55 to 58 °C.
O=C(O)[C@@H]1CCN1 showed a melting point of 206 to 207 °C.
Nc1c(Cl)cncc1Cl gave a melting point of 161 °C.
For CCC1Nc2cc(Cl)c(S(N)(=O)=O)cc2S(=O)(=O)N1 (stereo unspecified), the melting point was 270 °C.
In the case of CCOC(=O)/C(=N\Nc1ccc([N+](=O)[O-])cc1)C(=O)C(F)(F)F, the melting point is reported as 184 °C.
In the case of O=C(O)CCCCCCCCCCCCCCCCCCCCC(=O)O, the melting point is reported as 125 to 127 °C.
Compound CSc1nccc(-c2ccc(S(=O)(=O)Cl)s2)n1 has a melting point of 129 to 131 °C.
Compound O=C1CCC(=O)N1Br has a melting point of 177 °C.
O=Cc1ccc(SC2CCCCC2)c([N+](=O)[O-])c1 showed a melting point of 94 to 96 °C.
S=C(Nc1ccccc1)N1CC(c2ccccc2)CC1c1ccccc1 (stereo unspecified) showed a melting point of 188 °C.
In the case of O=C1C(=O)N(c2ccccc2)c2ccccc21, the melting point is reported as 141 °C.
COC(=O)c1ccc2c(C=O)cn(C(=O)OC(C)(C)C)c2c1 gave a melting point of 214 to 215 °C.
Compound Nc1cccc(C(=O)O)c1C(=O)O has a melting point of 170 to 180 °C.
With Nc1ccc(N=Nc2ccc(N)cc2)cc1 the melting point was 250 °C.
